Legend:
[1] = system: lipid peroxides production in rat brain homogenates; assay: Inhibitory action on lipid peroxides production in rat brain homogenates (thiobarbituric acid method); type: biochemical, rat (SD); details: n = 4-6
Method: Inhibitory Action on Lipid Peroxides Production in Rat Brain Homogenates
The male SD rat brain tissue was used as 5% homogenate in phosphate-buffered solution. After incubation of the homogenate for 1 hour at 37° C., the amount of lipid peroxides produced was determined by the thiobarbituric acid method according to the description of Ohkawa et al. (Analytical Biochemistry, 95: 551, 1979)
Test compounds were used as a solution of dimethylsulfoxide. The inhibitory action on lipid peroxide production was expressed as a % inhibition as compared with the amount of production in the vehicle group. Results

[2] = system: experimental cerebral infarction model of Mongolian gerbils; assay: Anti-edema action in an experimental cerebral infarction model of Mongolian gerbil; type: in vivo; details: oral, 1 hour before carotid ligation
Method: Anti-Edema Action in an Experimental Cerebral Infarction Model of Mongolian Gerbil
Male Monglian gerbils (8-10 weeks of age) were used. Under light ether anesthesia, the right common carotid artery was ligated for 1 hour to induce experimental cerebral infarction, and then reperfused on removing the ligature. One hour after reperfusion, the animal was guillotined, the brain was excised, and divided into the left and right brain hemispheres. The wet weight of each hemisphere was determined, and then the dry weight was determined after drying for 24 hours at 96° C. The water content (%) of each hemisphere was estimated according to the following equation. [formula] In addition, neurological deficit symptoms were observed during ligation-and-reperfusion periods.
Test drugs were orally administered as a gum arabic suspension 1 hour before the common carotid artery ligation under an unanesthetized condition. Results

[3] = system: SRS-A generation in the rat peritoneal cavity; assay: Effects on immunologically stimulated generation of SRS-A in the rat peritoneal cavity; type: in vivo; details: 1 mg/kg intraperitoneal, 1 min before antigen
Method: Slow Reacting Substance of Anaphylaxis (SRS-A) Generation in Rat Peritoneal Cavity
Generation of SRS-A in rat peritoneal cavity was determined by the method of Orange et al. [J. Immunol., 105, 1087-1095 (1970)] Rat-anti-egg albumin antiserum wad diluted twice with saline, and 2 ml of it was intraperitoneally given to the rat. Two hours later, egg albumin 2 mg in 5 ml of Tyrode solution containing heparin ([…]) and gelatin (0.1%) was intraperitoneally administered. Fifteen minutes after the antigen challenge, the animals were killed by bleeding under ether anesthesia and the solution given into the peritoneal cavity was harvested. The solution was centrifuged at 900 g for 5 min. Two ml of the supernatent was mixed with 7 ml of cold absolute ethanol and the mixture stood for 30 min at 4° C. After centrifugation at 1,500 g for 10 min, the supernatant was evaporated. The residue was dissolved in 1 ml of saline. Amount of SRS-A was bioassayed using guinea pig ileum. Drug dissolved in a 1% dimethylsulfoxide was intraperitoneally given 1 min before the antigen challenge.

[4] = system: mice of ICR breed; type: in vivo; details: 1000 mg/kg oral, male ICR mice, 7 days
Description: Acute Toxicity Test in Mice (Acute Toxicity)
1000 Milligrams per kilogram of each set specimen was applied orally to groups of 5 five-weeks old male mice of ICR breed, and a number of dead animals observed for the 7-days period was counted.

| Compound | Inhibition of lipid peroxides production ([1]; 10^-5 M) [%] | Inhibition of lipid peroxides production ([1]; 10^-6 M) [%] | Inhibition of lipid peroxides production ([1]; 10^-7 M) [%] | Incidence of appearance of neurological deficit symptoms ([2]; control 5/6) | Water content, normal side (left) ([2]; control 80.1 ± 0.3) [%] | Water content, infarct side (right) ([2]; control 81.3 ± 0.9) [%] | SRS-A generation, Inhibition (%) [3] [%] | SRS-A generation ([3]; control 26.5 ± 3.9) [LTD4 ng/rat] | Acute toxicity (number of dead animals/number of animals used) [4] |
| --- | --- | --- | --- | --- | --- | --- | --- | --- | --- |
| CC1=C(C)C(=O)C(C(CCCCCC(=O)O)c2ccccc2)=C(C)C1=O (stereo not drawn) [Compound No. 50, 7-(3,5,6-trimethyl-1,4-benzoquinon-2-yl)-7-phenylheptanoic acid] | 100 ± 0 | 66.6 ± 12.4 | 16.7 ± 3.2 | 1/6 | 79.8 ± 1.0 | 80.3 ± 1.0 | 72 | 7.5 ± 2.0 |  |
| CC1=C(C)C(=O)C(C(CCCCCC(=O)O)c2ccc(C)cc2)=C(C)C1=O (stereo not drawn) [Compound No. 93] |  |  |  |  |  |  |  |  | 0/5 |
